In patent US9447086B2, “6-amino acid heteroaryldihydropyrimidines for the treatment and prophylaxis of hepatitis B virus infection” (priority 2012, dated 2016):
pEC50: −log10 of the molar value. Read-outs that look alike come from different tables or passages of the source.

Experiments:
[1] = Cytotoxicity (CC50) in HepDE19 cells, CCK-8 cell viability; format: cell-based; conditions: human, HepDE19 cells
Procedure, shortened: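 HBV-transfected HepG2-derived HepDE19 cells grown in DMEM-F12 with 10% FBS and G418. Viability read five days after treatment by CCK-8, 2 h at 37 °C, absorbance at 450 and 630 nm.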

HBV [2] = experiment: Selectivity index (CC50 value/EC50 value); format: cell-based, Hepatitis B virus
Procedure, shortened: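 Ratio of CC50 to EC50, measuring antiviral activity against HBV relative to cytotoxicity in vitro; higher values indicate greater separation between viral inhibition and cell death.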

HBV [3] = experiment: Anti-HBV activity in vitro in HepG2.2.15 cells (extracellular HBV DNA by qPCR); format: cell-based, Hepatitis B virus; conditions: Hepatitis B virus
Procedure, shortened: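 HepG2.2.15 cells, which constitutively produce HBV, were seeded overnight and then treated for 5 days with half-log serially diluted compounds at 0.5% final DMSO. Extracellular HBV DNA in culture supernatant was extracted and quantified by qPCR.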

[4] = Metabolic stability study in human microsome; format: in vitro ADME
Procedure, shortened: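 Human liver microsomes (0.5 mg/mL) with 1 μM compound in 100 mM phosphate pH 7.4 at 37 °C, started with 1 mM NADPH or an NADPH-regenerating system. Samples taken at 0, 3, 6, 9, 15 and 30 min, quenched in methanol. Parent remaining measured by LC-MS/MS; no-cofactor controls included.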

[5] = Lyophilisation solubility assay (Lysa); format: physicochemical; conditions: phosphate buffer, pH 6.5, aqueous buffer, thermodynamic from solid
Procedure, shortened: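 Duplicate samples from 10 mM DMSO stocks are dried, redissolved in 0.05 M phosphate buffer pH 6.5, stirred 1 h, shaken 2 h and left overnight. Filtrate and its 1/10 dilution are quantified by direct UV or HPLC-UV, giving solubility in μg/mL.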

[6] = HepG2.2.15 cells, in-house data, read-out: EC50

SMILES	CC50 at 5 days ([1]; read-out: CC50)	Selectivity index (CC50/EC50) (HBV [2])	pEC50 (HBV [3]; [6])	Human Hepatic Clearance [4]	solubility thermodynamic [5]	CC50 at 5 days [1]	pEC50 (HBV [3]; HepG2.2.15)
CCOC(=O)C1=C(CN2CCOC[C@H]2C(=O)O)NC(c2nccs2)=N[C@H]1c1ccc(Br)cc1 [Example 123, (3S)-4-[[(4S)-4-(4-Bromophenyl)-5-ethoxycarbonyl-2-(1,3-thiazol-2-yl)-1,4-dihydropyrimidin-6-yl]methyl]morpholine-3-carboxylic acid]	56000 nM	19900	8.55	3.14 mL/min/kg	> 666 µg/mL		
CCOC(=O)C1=C(CN2CCOC[C@H]2C(=O)O)NC(c2nccs2)=N[C@H]1c1ccc(F)c(F)c1F [Example 44, (S)-4-[(R)-5-Ethoxycarbonyl-2-thiazol-2-yl-6-(2,3,4-trifluoro-phenyl)-3,6-dihydro-pyrimidin-4-ylmethyl]-morpholine-3-carboxylic acid]	49000 nM	10748	8.34	4.46 mL/min/kg	> 626 µg/mL		
CCOC(=O)C1=C(CN2CCOC[C@H]2C(=O)O)NC(c2nccs2)=N[C@H]1c1ccc(F)cc1Br [Example 122, (S)-4-(((R)-6-(2-Bromo-4-fluorophenyl)-5-(ethoxycarbonyl)-2-(thiazol-2-yl)-3,6-dihydropyrimidin-4-yl)methyl)morpholine-3-carboxylic acid]	73000 nM	55769	8.89	1.58 mL/min/kg	> 722 µg/mL		
COC(=O)C1=C(CN2CC(F)(F)C[C@H]2C(=O)O)NC(c2nccs2)=N[C@H]1c1ccc(F)cc1Br [Example 84, (R)-4-(2-Bromo-4-fluoro-phenyl)-6-((S)-2-carboxy-4,4-difluoro-pyrrolidin-1-ylmethyl)-2-thiazol-2-yl-1,4-dihydro-pyrimidine-5-carboxylic acid methyl ester]		>41667		9.3 mL/min/kg	> 668 µg/mL	> 100000 nM	8.62
COC(=O)C1=C(CN2CCOC[C@H]2C(=O)O)NC(c2ncoc2C)=N[C@H]1c1cccc(F)c1Cl [Example 103, (S)-4-[(R)-6-(2-Chloro-3-fluoro-phenyl)-5-methoxycarbonyl-2-(5-methyl-oxazol-4-yl)-3,6-dihydro-pyrimidin-4-ylmethyl]-morpholine-3-carboxylic acid]	> 100000 nM	>6803	7.82	2.81 mL/min/kg	> 643 µg/mL		
CCOC(=O)C1=C(CN2CC(F)(F)C[C@H]2C(=O)O)NC(c2nccn2C)=N[C@H]1c1ccc(F)cc1Cl [Example 36, (R)-6-((S)-2-Carboxy-4,4-difluoro-pyrrolidin-1-ylmethyl)-4-(2-chloro-4-fluoro-phenyl)-2-(1-methyl-1H-imidazol-2-yl)-1,4-dihydro-pyrimidine-5-carboxylic acid ethyl ester]	23000 nM	1251	7.74	6.22 mL/min/kg	> 637 µg/mL		
CC(C)OC(=O)C1=C(CN2CCOC[C@H]2C(=O)O)NC(c2nccs2)=N[C@H]1c1cccc(F)c1Cl [Example 101, (S)-4-[(R)-6-(2-Chloro-3-fluoro-phenyl)-5-isopropoxycarbonyl-2-thiazol-2-yl-3,6-dihydro-pyrimidin-4-ylmethyl]-morpholine-3-carboxylic acid]	91000 nM	6741	7.85	4.18 mL/min/kg	> 571 µg/mL		
COC(=O)C1=C(CN2CCO[C@H](C)[C@H]2C(=O)O)NC(c2nccs2)=N[C@H]1c1ccc(F)c(F)c1 [Example 113, (2R,3S)-4-[(S)-6-(3,4-Difluoro-phenyl)-5-methoxycarbonyl-2-thiazol-2-yl-3,6-dihydro-pyrimidin-4-ylmethyl]-2-methyl-morpholine-3-carboxylic acid]	> 100000 nM	>6061	7.80	0 mL/min/kg	> 615 µg/mL		
COC(=O)C1=C(CN2CC(F)(F)C[C@H]2C(=O)O)NC(c2nccs2)=N[C@H]1c1ccc(Cl)cc1Cl [Example 85, (R)-6-((S)-2-Carboxy-4,4-difluoro-pyrrolidin-1-ylmethyl)-4-(2,4-dichloro-phenyl)-2-thiazol-2-yl-1,4-dihydro-pyrimidine-5-carboxylic acid methyl ester]	66000 nM	10694	8.21	6.91 mL/min/kg	> 599 µg/mL		
CCOC(=O)C1=C(CN2CCOC[C@H]2C(=O)O)NC(c2ncoc2C)=N[C@H]1c1ccc(F)cc1Br [Example 69, (S)-4-[(R)-6-(2-Bromo-4-fluoro-phenyl)-5-ethoxycarbonyl-2-(5-methyl-oxazol-4-yl)-3,6-dihydro-pyrimidin-4-ylmethyl]-morpholine-3-carboxylic acid]	57000 nM	9500	8.22	0 mL/min/kg	> 658 µg/mL		
[2H][C@@]1(c2ccc(F)cc2Cl)N=C(c2nccs2)NC(CN2CC(F)(F)C[C@H]2C(=O)O)=C1C(=O)OC [Example 3, (S)-6-((S)-2-Carboxy-4,4-difluoro-pyrrolidin-1-ylmethyl)-4-(2-chloro-4-fluoro-phenyl)-[4-^2H]-2-thiazol-2-yl-1,4-dihydro-pyrimidine-5-carboxylic acid methyl ester]	97000 nM	88182	8.96	9.21 mL/min/kg	> 644 µg/mL		
CCOC(=O)C1=C(CN2CCOC[C@H]2C(=O)O)NC(c2nccs2)=N[C@H]1c1cccc(F)c1F [Example 70, (S)-4-[(R)-6-(2,3-Difluoro-phenyl)-5-ethoxycarbonyl-2-thiazol-2-yl-3,6-dihydro-pyrimidin-4-ylmethyl]-morpholine-3-carboxylic acid]	> 100000 nM	>11236	8.05	2.22 mL/min/kg	> 611 µg/mL		
CCOC(=O)C1=C(CN2CC(F)(F)CC[C@H]2C(=O)O)NC(c2nccs2)=N[C@H]1c1ccccc1Cl [Example 111, (R)-6-((S)-2-Carboxy-5,5-difluoro-piperidin-1-ylmethyl)-4-(2-chloro-phenyl)-2-thiazol-2-yl-1,4-dihydro-pyrimidine-5-carboxylic acid ethyl ester]	> 100000 nM	17241	8.24	5.31 mL/min/kg	> 620 µg/mL		
CCOC(=O)C1=C(CN2CCOC[C@H]2C(=O)O)NC(c2nccs2)=N[C@H]1c1ccc(Cl)c(Cl)c1 [Example 46, (S)-4-[(S)-6-(3,4-Dichloro-phenyl)-5-ethoxycarbonyl-2-thiazol-2-yl-3,6-dihydro-pyrimidin-4-ylmethyl]-morpholine-3-carboxylic acid]	36000 nM	2212	7.80	0 mL/min/kg	> 655 µg/mL		
CCOC(=O)C1=C(CN2CC(F)(F)C[C@H]2C(=O)O)NC(c2nccs2)=N[C@H]1c1cccc(F)c1Cl [Example 64, (R)-6-((S)-2-Carboxy-4,4-difluoro-pyrrolidin-1-ylmethyl)-4-(2-chloro-3-fluoro-phenyl)-2-thiazol-2-yl-1,4-dihydro-pyrimidine-5-carboxylic acid ethyl ester]	47000 nM	15667	8.52	0 mL/min/kg	> 620 µg/mL		
COC(=O)C1=C(CN2CCO[C@H](C)[C@H]2C(=O)O)NC(c2nccs2)=N[C@H]1c1cccc(F)c1Cl [Example 115, (2R,3S)-4-[(R)-6-(2-Chloro-3-fluoro-phenyl)-5-methoxycarbonyl-2-thiazol-2-yl-3,6-dihydro-pyrimidin-4-ylmethyl]-2-methyl-morpholine-3-carboxylic acid]	> 100000 nM	>43478	8.64	1.55 mL/min/kg	> 642 µg/mL		
CCOC(=O)C1=C(CN2CCOC[C@H]2C(=O)O)NC(c2nccs2)=N[C@H]1c1ccccc1Br [Example 127, (S)-4-(((R)-6-(2-Bromophenyl)-5-(ethoxycarbonyl)-2-(thiazol-2-yl)-3,6-dihydropyrimidin-4-yl)methyl)morpholine-3 carboxylic acid]	> 100000 nM	>14925	8.17	2.44 mL/min/kg	> 672 µg/mL		
